Test results: US20190282703A1, “ECTONUCLEOTIDE PYROPHOSPHATASE-PHOSPHODIESTERASE (ENPP) CONJUGATES AND USES THEREOF” (Mavupharma, Inc., priority 2018, published 2019)

Key:
[1] = target: T1, human ENPP-1 enzyme (Homo sapiens, UniProt P22413); test: ENPP1 Enzyme Assay with cGAMP Substrate (AMP-Glo); assay type: biochemical; settings: for inhibition at 1 µM: 1 uM compound; for inhibition at 1 µM / inhibition at 10 µM: 20 μM 2′3′-cGAMP substrate; for inhibition at 10 µM: 10 uM compound
T1 construct: purchased R&D Systems
T1 sequence (P22413 1-925): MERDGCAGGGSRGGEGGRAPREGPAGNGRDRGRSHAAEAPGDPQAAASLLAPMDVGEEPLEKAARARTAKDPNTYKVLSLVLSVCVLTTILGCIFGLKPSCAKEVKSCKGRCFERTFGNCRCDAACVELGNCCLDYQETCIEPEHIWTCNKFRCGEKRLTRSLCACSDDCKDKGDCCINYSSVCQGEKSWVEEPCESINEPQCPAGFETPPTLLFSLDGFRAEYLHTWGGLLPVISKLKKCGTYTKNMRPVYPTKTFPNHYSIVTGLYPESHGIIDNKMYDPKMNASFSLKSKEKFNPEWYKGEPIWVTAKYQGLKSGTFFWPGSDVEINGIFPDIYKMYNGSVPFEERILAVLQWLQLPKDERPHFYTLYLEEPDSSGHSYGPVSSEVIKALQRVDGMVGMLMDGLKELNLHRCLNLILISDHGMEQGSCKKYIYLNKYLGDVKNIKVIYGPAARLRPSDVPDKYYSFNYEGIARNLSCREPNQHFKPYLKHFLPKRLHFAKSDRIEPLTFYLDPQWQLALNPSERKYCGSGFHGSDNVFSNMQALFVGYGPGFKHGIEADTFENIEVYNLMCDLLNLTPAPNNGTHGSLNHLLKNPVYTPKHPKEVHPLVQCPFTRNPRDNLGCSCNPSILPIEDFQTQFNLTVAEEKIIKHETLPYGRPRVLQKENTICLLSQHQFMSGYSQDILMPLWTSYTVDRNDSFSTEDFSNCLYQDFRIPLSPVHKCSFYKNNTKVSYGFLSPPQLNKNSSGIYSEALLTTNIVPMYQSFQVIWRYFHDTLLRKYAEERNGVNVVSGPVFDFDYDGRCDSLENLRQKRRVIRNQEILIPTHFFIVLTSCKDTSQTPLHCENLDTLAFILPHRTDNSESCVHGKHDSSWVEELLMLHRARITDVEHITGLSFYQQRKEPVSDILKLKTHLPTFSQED
Text: ENPP1 Enzyme Assay with cGAMP Substrate:
Ectonucleotide pyrophosphatase/phosphodiesterase 1 (ENPP-1) is a transmembrane glycoprotein that hydrolyzes nucleotides and nucleotide derivatives with the formation of nucleoside-5′-monophosphates. ENPP-1 hydrolyzes 2′3′-cGAMP (cGAMP), breaking it down into 5′-AMP and 5′-GMP. The 5′-AMP formed from the reaction is detected using the AMP-Glo® Kit (Promega). The assay kit contains two reagents. The first reagent terminates the enzymatic reaction, removes ATP (using adenylyl cyclase), and converts 5′-AMP produced into ADP (using polyphosphate: AMP phosphotransferase). The second reagent converts ADP to ATP (using adenylate kinase) and generates light from ATP using the luciferin/luciferase reaction. The amount of light measured is proportional to the amount of 5′-AMP produced by ENPP1.
Different concentrations of exemplary ENPP1 inhibitors (synthetic molecules #1-7; see Table 1) were pre-incubated with 5 ng/well of human ENPP-1 enzyme (R&D Systems) for 15 minutes at 37° C. The reaction was initiated by adding 20 μM 2′3′-cGAMP and incubating for 30 minutes at 37° C. The final assay reaction mixture contained a buffer of 50 mM Tris pH 8.0, 250 mM NaCl, 0.5 mM CaCl2, 1 μM ZnCl2 and 1% DMSO. At the end of the incubation, the reaction was stopped by adding 12 μl of AMP-Glo reagent-1 and mixing the reaction uniformly for 5 minutes, followed by incubation at room temperature for one hour. Then 25 μl of AMP Glo reagent-2 was added to the reaction, mixed uniformly with a pipette, and incubated at room temperature for one hour to convert the ADP formed from reagent-1 to ATP and light. The generated light was measured in a Perkin Elmer Victor® instrument. Maximal activity control samples (containing enzyme, substrate, and buffer in the absence of ENPP1 inhibitors: MAX) and background control samples (containing enzyme, substrate, and buffer plus a fully inhibitory concentration (3 μM) of the reference ENPP1 Inhibitor, MV-0000002: MIN) were simultaneously evaluated in order to calculate the percent inhibition at each compound concentration as follows:
(§1) % inhibition=(([MAX−MIN]−[COMPOUND−MIN])/[MAX−MIN])*100
The IC50 values for percent inhibition versus compound concentration were determined by fitting the inhibition curves using a four-parameter variable slope model in GraphPad Prism® software. Ki values are derived from the IC50 values using the Cheng-Prusoff equation: […]

[2] = target: T1, human ENPP-1 enzyme; test: ENPP1 Enzyme Assay with TMP-pNP Substrate (absorbance at 405 nm); assay type: biochemical; settings: for inhibition at 10 µM: read-out: TMP-pNP: % inhibition at 10 uM, 10 uM compound, 200 μM TMP-pNP substrate
Procedure: ENPP1 Enzyme Assay with TMP-pNP Substrate:
ENPP-1 hydrolyzes thymidine 5′monophosphate p-nitrophenyl ester (TMP-pNP) to nucleotide-5′-monophosphate and p-nitrophenol, which is a chromogenic product. The amount of p-nitrophenol product formed is measured using its absorbance at 405 nm, which is directly proportional to enzyme activity. Different concentrations of inhibitors (synthetic molecules #1-7; see Table 1) were pre-incubated with 15 ng/well of human ENPP-1 enzyme (R&D Systems) for 15 minutes at 37° C. The reaction was initiated by adding 200 μM TMP-pNP and incubating for 10 minutes at 37° C. The final assay reaction mixture contained a buffer of 50 mM Tris pH 8.0, 250 mM NaCl, 0.5 mM CaCl2, 1 μM ZnCl2 and 1% DMSO. The amount of product formed was measured directly in a Tecan® spectrophotometer. Maximal activity control samples (containing enzyme, substrate, and buffer in the absence of ENPP1 inhibitors: MAX) and background control samples (containing enzyme, substrate, and buffer plus a fully inhibitory concentration (3 μM) of the reference ENPP1 Inhibitor, MV-0000002: MIN) are simultaneously evaluated in order to calculate the percent inhibition at each compound concentration as follows:
as §1
The IC50 values for percent inhibition versus compound concentration were determined by fitting the inhibition curves (percent inhibition versus inhibitor concentration) using a four-parameter variable slope model in GraphPad Prism® software. Ki values are derived from the IC50 values using the Cheng-Prusoff equation:
Ki=IC50/(1+[TMP-pNP]/Km),

Row | inhibition at 1 µM [1] [%] | inhibition at 10 µM [2] [%] | Ki [1] [nM] | inhibition at 10 µM [1] [%] | Ki [2] [nM] | Compound
1 | ≥ 75 | ≥ 75 | – | – | – | COc1cc2ncc(C(N)=O)c(N3CCC(CCNS(N)(=O)=O)CC3)c2cc1OC [Ex 2, 6,7-dimethoxy-4-(4-(2-(sulfamoylamino)ethyl)piperidin-1-yl)quinoline-3-carboxamide]
2 | – | – | > 1000 | ≥ 75 | > 1000 | Cn1ncc2c(N3CCC(CCNS(N)(=O)=O)CC3)ncnc21 [Ex 3, N-(2-(1-(1-methyl-1H-pyrazolo[3,4-d]pyrimidin-4-yl)piperidin-4-yl)ethyl)sulfonic amide]
3 | – | ≥ 75 | ≤ 100 | ≥ 75 | 100 to 1000 | COc1cc2ncnc(N3CCC4(CC3)CN(S(N)(=O)=O)C4)c2cc1OC [Ex 5, 7-(6,7-dimethoxyquinazolin-4-yl)-2,7-diazaspiro[3.5]nonane-2-sulfonamide]
4 | ≥ 75 | – | 100 to 1000 | – | > 1000 | COc1cc2ncnc(N3CCc4c(cccc4S(N)(=O)=O)C3)c2cc1OC [Ex 6, 2-(6,7-dimethoxyquinazolin-4-yl)-1,2,3,4-tetrahydroisoquinoline-5-sulfonamide]
5 | – | – | 100 to 1000 | ≥ 75 | > 1000 | COc1cc2ncnc(NCCc3cccc(NS(N)(=O)=O)c3)c2cc1OC [Ex 7, N-(3-(2-((6,7-dimethoxyquinazolin-4-yl)amino)ethyl)phenyl)sulfonic amide]
